ChEMBL document CHEMBL4346723, “Targeting tropomyosin receptor kinase for cancer therapy” (Eur J Med Chem, 2019)
Values belong to the compound of their own block, whether it stands above or below them.

Legend:
OVCAR-3 = test: Cytotoxicity against human OVCAR3 cells after 24 to 72 hrs by MTT assay; assay type: functional, cell-based
SK-OV-3 = test: Cytotoxicity against human SKOV3 cells after 24 to 72 hrs by MTT assay; assay type: functional, cell-based
[1] = Inhibition of TRK (unknown origin); parameters: species or system Homo sapiens
[2] = target: T1, High affinity nerve growth factor receptor (Homo sapiens, UniProt P04629); test: Inhibition of recombinant His-tagged human TRKA cytoplasmic domain (441 to 796 residues) expressed in baculovirus expression system using biotin labelled TK peptide preincubated for 20 mins followed by substrate addition by HTRF assay
T1 sequence (P04629 whole entry, the tested form may be a part): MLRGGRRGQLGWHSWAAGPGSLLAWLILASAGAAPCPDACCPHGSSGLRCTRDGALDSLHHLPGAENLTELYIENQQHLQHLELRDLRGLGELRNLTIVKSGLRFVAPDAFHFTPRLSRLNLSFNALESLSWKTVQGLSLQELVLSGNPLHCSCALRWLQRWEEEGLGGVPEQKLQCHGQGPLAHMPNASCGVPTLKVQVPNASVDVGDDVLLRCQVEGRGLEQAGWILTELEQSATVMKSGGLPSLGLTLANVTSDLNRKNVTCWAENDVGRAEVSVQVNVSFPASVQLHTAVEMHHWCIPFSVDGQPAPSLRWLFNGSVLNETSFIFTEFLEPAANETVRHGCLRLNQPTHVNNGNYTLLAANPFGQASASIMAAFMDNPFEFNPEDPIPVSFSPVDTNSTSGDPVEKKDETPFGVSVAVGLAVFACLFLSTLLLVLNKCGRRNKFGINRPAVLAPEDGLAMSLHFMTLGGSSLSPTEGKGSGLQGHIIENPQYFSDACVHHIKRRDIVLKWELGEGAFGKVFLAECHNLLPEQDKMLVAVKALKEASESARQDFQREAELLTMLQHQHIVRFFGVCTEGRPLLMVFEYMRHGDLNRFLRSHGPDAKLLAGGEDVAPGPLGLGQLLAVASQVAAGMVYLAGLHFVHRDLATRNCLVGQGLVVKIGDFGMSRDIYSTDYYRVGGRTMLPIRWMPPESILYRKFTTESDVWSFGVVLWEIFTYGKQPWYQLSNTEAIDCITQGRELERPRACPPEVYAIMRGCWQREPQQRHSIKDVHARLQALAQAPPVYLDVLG

[3] = target: T1, High affinity nerve growth factor receptor; test: Inhibition of recombinant full length human TRKA expressed in U2OS cells using Poly(Glu:Tyr) as substrate after 30 mins by scintillation counting assay
KARPAS-299 = test: cells; conditions: Homo sapiens, KARPAS-299, 48 h
Description: Antiproliferative activity against human KARPAS299 cells incubated for 48 hrs by sulforhodamine B assay

SU-DHL-1 = test: cells; conditions: Homo sapiens, SU-DHL-1, 48 h
Description: Antiproliferative activity against human SU-DHL1 cells incubated for 48 hrs by sulforhodamine B assay

MV4-11 = test: cells; conditions: Homo sapiens, MV4-11, 48 h
Description: Antiproliferative activity against human MV4-11 cells incubated for 48 hrs by sulforhodamine B assay

cells [4] = conditions: Homo sapiens, SR-786, 48 h
Description: Antiproliferative activity against human SR786 cells incubated for 48 hrs by sulforhodamine B assay

cells [5] = conditions: Homo sapiens, SUP-M2, 48 h
Description: Antiproliferative activity against human SUP-M2 cells incubated for 48 hrs by sulforhodamine B assay

[6] = target: T1, High affinity nerve growth factor receptor; test: Inhibition of recombinant N- terminal GST-tagged human NTRK1 expressed in baculovirus infected Sf9 cells using Poly(Glu:Tyr) as substrate after 45 mins
[7] = target: T1, High affinity nerve growth factor receptor; test: Inhibition TRKA (unknown origin) by cell based assay
NTRK1/NTRK2 = NTRK1/NTRK2 (Homo sapiens, UniProt P04629+Q16620); test: Inhibition of TRKA/TRKB (unknown origin); assay type: protein assay
[8] = target: T1, High affinity nerve growth factor receptor; test: Inhibition of human TRKA expressed in human AD293 cells assessed as reduction in TrkA phosphorylation at Tyr490 residues preincubated for 20 mins followed by NGF-stimulation measure after 5 mins by ELISA; assay type: cell-based
[9] = target: T1, High affinity nerve growth factor receptor; test: Inhibition of TRKA (unknown origin) using poly GT as substrate preincubated for 30 mins followed by substrate addition measured after 30 mins by TR-FRET Assay
[10] = target: Tyrosine-protein kinase JAK2 (Homo sapiens, UniProt O60674); test: Inhibition of recombinant C-terminal His6-tagged human JAK2 (808 to end residues) expressed in baculovirus infected SF21 insect cells at 3 uM using Tyr 1054/1055 biotinylated peptide as substrate after 60 mins by Alphascreen assay relative to control
Chain of Tyrosine-protein kinase JAK2 (O60674 whole entry): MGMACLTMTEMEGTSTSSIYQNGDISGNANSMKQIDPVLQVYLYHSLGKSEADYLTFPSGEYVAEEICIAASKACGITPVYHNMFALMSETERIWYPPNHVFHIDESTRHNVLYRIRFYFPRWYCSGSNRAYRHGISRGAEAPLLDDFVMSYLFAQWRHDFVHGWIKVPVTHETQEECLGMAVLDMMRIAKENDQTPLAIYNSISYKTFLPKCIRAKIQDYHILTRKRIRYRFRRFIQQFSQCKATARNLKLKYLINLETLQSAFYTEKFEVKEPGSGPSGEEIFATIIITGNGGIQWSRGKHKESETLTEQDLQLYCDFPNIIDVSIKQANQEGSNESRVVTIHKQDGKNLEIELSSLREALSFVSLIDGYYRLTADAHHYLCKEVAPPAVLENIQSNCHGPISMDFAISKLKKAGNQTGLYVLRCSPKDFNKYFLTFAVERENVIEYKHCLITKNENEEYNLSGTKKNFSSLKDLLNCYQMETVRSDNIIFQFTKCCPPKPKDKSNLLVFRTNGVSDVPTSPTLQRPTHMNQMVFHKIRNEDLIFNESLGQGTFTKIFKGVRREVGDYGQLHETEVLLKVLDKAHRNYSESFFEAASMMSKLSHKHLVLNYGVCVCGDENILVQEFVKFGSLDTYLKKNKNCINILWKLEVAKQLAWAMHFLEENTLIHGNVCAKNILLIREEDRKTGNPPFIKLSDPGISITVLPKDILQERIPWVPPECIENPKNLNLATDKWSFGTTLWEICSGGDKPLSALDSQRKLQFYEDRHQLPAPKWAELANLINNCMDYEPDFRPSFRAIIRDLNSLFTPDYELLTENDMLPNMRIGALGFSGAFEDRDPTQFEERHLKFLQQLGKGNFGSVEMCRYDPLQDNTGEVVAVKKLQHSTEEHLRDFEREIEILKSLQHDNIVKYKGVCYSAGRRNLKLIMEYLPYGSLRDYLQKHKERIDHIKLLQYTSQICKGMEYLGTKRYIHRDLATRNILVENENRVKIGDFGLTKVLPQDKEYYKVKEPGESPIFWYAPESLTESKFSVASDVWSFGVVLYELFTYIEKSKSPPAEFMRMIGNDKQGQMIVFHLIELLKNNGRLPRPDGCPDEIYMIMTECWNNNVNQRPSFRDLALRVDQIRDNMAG

[11] = AUC (0 to 24 hrs) in cancer patient at 100 mg, twice daily; assay type: ADME; parameters: dose 100 mg, time < 24 hr; conditions: human, in vivo
[12] = Oral bioavailability in healthy volunteer at 100 mg, twice daily; conditions: human, in vivo
[13] = Apparent oral clearance in healthy volunteer at 100 mg, twice daily; conditions: human, in vivo
[14] = Half life in healthy volunteer at 100 mg, twice daily; conditions: human, in vivo
[15] = Cmax in cancer patient at 100 mg, twice daily; assay type: ADME; parameters: dose 100 mg; conditions: human, in vivo
[16] = Tmax in cancer patient at 100 mg, twice daily; assay type: ADME; conditions: human, in vivo
KM12 = test: cells; conditions: Homo sapiens
Description: Growth inhibition of human KM12 cells

[17] = Volume of distribution at steady state in healthy volunteer at 100 mg, twice daily; conditions: human, in vivo, read-out: Vdss
IMR-32 = test: Antiproliferative activity against human IMR32 cells by sulforhodamine B assay; assay type: functional, cell-based

Compound: H-TGLDSDGLYQN-OH
IC50 (OVCAR-3): 200 nM
IC50 (SK-OV-3): 200 nM

Compound: C[C@H](Nc1nc(Nc2cc(C3CC3)[nH]n2)c(Cl)cc1Cl)c1ccc(F)cc1
IC50 [1]: 109 nM

Compound: Nc1cc(CNC(=O)c2cc(NC(=O)c3cc(-c4cccc(F)n4)c(Cl)cc3Cl)n(-c3ccccc3)n2)ccn1
IC50 [2]: 1.02 nM

Compound: Cn1ccc(-c2cc(C(=O)Nc3c(-c4ccccc4)nc4ccc(CO)cn34)ccc2C(F)(F)F)n1
IC50 [3]: 1 nM

Compound: Cc1nc(-c2ccccc2)c(NC(=O)Nc2cnc3ccccn23)s1
IC50 [3]: 48 nM

Compound: O=C(Nc1c(-c2ccccc2)nc2sccn12)NC1c2ccccc2-c2ccccc21
IC50 [3]: 30 to 35 nM

Compound: CS(=N)(=O)c1ccc(-c2ccc(CNC(=O)Cn3c4c(c5ccccc53)CCn3nccc3-4)nc2)cc1 (centres undefined)
IC50 [3]: 0.5 to 1 nM

Compound: CN1CCN(c2ccc(C(=O)Nc3n[nH]c4ccc(Cc5cc(F)cc(F)c5)cc34)c(NC3CCOCC3)c2)CC1 [ENTRECTINIB]
IC50 (KARPAS-299): 31 nM
IC50 (SU-DHL-1): 20 nM
IC50 (MV4-11): 81 nM
IC50 (cells [4]): 81 nM
IC50 (cells [5]): 41 nM

Compound: CC(C)c1cc(C(=O)c2cccc(NC(=O)Nc3ccc(OCc4ccccc4)cc3)c2)c2c(N)ncnn12
IC50 (NTRK1/NTRK2): < 1 nM

Compound: COCCN1C[C@@H](NC(=O)Nc2cc3c(nc2-c2ccccc2)CCCC3)[C@H](c2ccccc2)C1
IC50 [8]: < 100 nM

Compound: C[C@H](Nc1cc(Nc2cc(C3CC3)[nH]n2)c([N+](=O)[O-])cc1F)c1ccc(F)cc1
IC50 [1]: 426 nM

Compound: COCCN1C[C@@H](NC(=O)Nc2c(C)c(-c3ccnc(C)n3)nn2-c2ccccc2)[C@H](c2cccc(F)c2)C1
IC50 [3]: 1.1 nM
IC50 [7]: 1.9 nM

Compound: C[C@H](Nc1nccc(Nc2cc(C3CC3)[nH]n2)n1)c1ccc(F)cc1
IC50 [1]: 67 nM

Compound: O=C(Nc1c(-c2ccccc2)nc2ccccn12)NC1c2ccccc2-c2ccccc21
IC50 [3]: 28 to 30 nM

Compound: COCCN1C[C@@H](NC(=O)Nc2cc3ccccc3nc2-c2ccccc2)[C@H](c2ccccc2)C1
IC50 [8]: < 100 nM

Compound: Cc1cc(Nc2cncc(N[C@@H](C)c3ccc(F)cc3)n2)n[nH]1
inhibition [10]: 100%

Compound: CN(C)CCCc1cc(C(=O)c2cccc(NC(=O)Nc3ccc(Cl)cc3Cl)c2)c2c(N)ncnn12
IC50 (NTRK1/NTRK2): < 1 nM

Compound: N#Cc1cc([N+](=O)[O-])c(Nc2cc(C3CC3)[nH]n2)cc1N[C@@H](CO)c1ccc(F)cc1
IC50 [1]: 859 nM

Compound: COc1ccc2nc(N[C@@H](CO)c3ccc(F)cc3)nc(Nc3cc(C4CC4)[nH]n3)c2c1
IC50 [1]: 87 nM

Compound: C[C@H](Oc1cc(-c2cnn(C3CCNCC3)c2)cnc1N)c1c(Cl)ccc(F)c1Cl
IC50 (IMR-32): 100 nM

Further lines, results first:

IC50 [1]: 5 nM
Compound: C[C@H](Nc1ncc(Br)c(Nc2cc(C3CC3)[nH]n2)n1)c1ccc(F)cn1

IC50 [6]: < 10 nM
Compound: CC(C)(C)c1nnc(-c2cnn3ccc(N4CCCC4c4cc(F)ccc4F)nc23)o1 (centres undefined)

IC50 [3]: 1.5 nM
IC50 [7]: 1.3 nM
Compound: COCCN1C[C@@H](NC(=O)Nc2c(C)c(C(C)(C)C)nn2-c2ccccc2)[C@H](c2ccc(F)c(F)c2)C1

IC50 [6]: < 10 nM
Compound: CC(C)c1nnc(-c2cnn3ccc(N4CCCC4c4cc(F)ccc4F)nc23)s1 (centres undefined)

IC50 [1]: 8 nM
Compound: C[C@H](Nc1ncc(Cl)c(Nc2cc(C3CC3)[nH]n2)n1)c1ccc(F)cn1

IC50 [9]: < 50 nM
Compound: O=C(c1cnc2ccc(N3CCCC3c3cc(F)ccc3F)cn12)N1CC(O)C1 (centres undefined)

IC50 [3]: 0.7 to 1 nM
Compound: CS(=N)(=O)c1ccc(-c2ccc(CNC(=O)Cn3c4c(c5cc(F)ccc53)CCn3nccc3-4)nc2)cc1 (centres undefined)

AUC [11]: 4351 ng·h/mL
bioavailability [12]: 32 to 37%
CL/F [13]: 98 L/h
IC50 [1]: 2 to 20 nM
half-life [14]: 2.9 h
Cmax [15]: 788 ng/mL
Tmax [16]: 1 h
IC50 (KM12): 1.9 nM
Vd [17]: 48 L
Compound: O=C(Nc1cnn2ccc(N3CCC[C@@H]3c3cc(F)ccc3F)nc12)N1CC[C@H](O)C1.O=S(=O)(O)O [LAROTRECTINIB SULFATE]

IC50 [9]: < 50 nM
Compound: O=C(c1cnc2ccc(N3CCCC3c3cc(F)ccc3F)cn12)N1CC[C@H](O)C1 (some centres undefined)
